# Reference: patent publication US20240044899A1, “BIOMARKERS FOR FIMEPINOSTAT THERAPY” (Curis, Inc, priority 2021, published 2024)
# Columns and labels:
# [1] = Phase 1 and phase 2 clinical studies of fimepinostat, treatment-emergent adverse events (CTCAE v4.03); format: in vivo, human; conditions: for TEAE Weight decreased, patients n (%) / TEAE White blood cell count decreased, patients n (%) / TEAE Abdominal pain, patients n (%) / TEAE Anemia, patients n (%) / TEAE Arthralgia, patients n (%) / TEAE Back pain, patients n (%) / TEAE Constipation, patients n (%) / TEAE Cough, patients n (%) / TEAE Decreased appetite, patients n (%) / TEAE Diarrhea, patients n (%) / TEAE Dizziness, patients n (%) / TEAE Dyspnea, patients n (%) / TEAE Edema peripheral, patients n (%) / TEAE Fatigue, patients n (%) / TEAE Hypokalemia, patients n (%) / TEAE Hypomagnesaemia, patients n (%) / TEAE Hypophosphatemia, patients n (%) / TEAE Lymphocyte count decreased, patients n (%) / TEAE Nausea, patients n (%) / TEAE Neutropenia, patients n (%) / TEAE Pain in extremity, patients n (%) / TEAE Pyrexia, patients n (%) / TEAE Thrombocytopenia, patients n (%) / TEAE Upper respiratory tract infection, patients n (%) / TEAE Vomiting, patients n (%): intention to treat population (n = 58)
# Method: Patients received fimepinostat capsules (Pharmatek Laboratories Inc., San Diego, CA, USA) orally, within 30 minutes of a meal, in 21-day cycles until disease progression was documented or other discontinuation criteria were met. In the phase 2 protocol, change in dose and/or schedule intensity of fimepinostat were allowed as per protocol due to toxicity. Safety and tolerability were assessed by the incidence and severity of adverse events as determined by NCI Common Terminology Criteria for Adverse Events (CTCAE v4.03) in both protocols.
# The intention to-treat-population included al patients from both protocols who received at least one dose of fimepinostat. The evaluable population includes all patients who received at least one dose of study drug (phase 1) or one full cycle of treatment (phase 2) and completed at least one post-baseline disease assessment. Patients were re-staged according to the Revised Response Criteria for Malignant Lymphoma.^18
# All patients received fimepinostat 60 mg by mouth 5 days on/2 days off as the starting dose with the exception of 1 patient enrolled in the phase 1 protocol who received 60 mg by mouth three times weekly. Three patients enrolled in the phase 1 protocol received concurrent rituximab.
# Treatment-emergent adverse events (TEAE) occurring per patient by highest grade experienced with a frequency of ≥10% are listed in Table 5. The most common TEAE of any grade were diarrhea (72%), nausea (52%) and thrombocytopenia (38%). The most common grade 3 or 4 adverse events were […], neutropenia (15%), diarrhea (12%) and anemia (12%). Three patients experienced grade 5 TEAE: respiratory failure deemed unlikely related to treatment in 1 patient, sepsis deemed not related to treatment in 1 patient and tracheal obstruction deemed not related to treatment in 1 patient. Two non-evaluable patients discontinued treatment due to TEAE: grade 2 vomiting deemed related to treatment occurring in 1 patient and grade 4 hypercalcemia deemed unlikely related to treatment in 1 patient.
# [2] = test system: DLBCL patients with MYC-altered disease; conditions: 11 evaluable DLBCL patients with MYC-altered disease, phase 1, cited from earlier work
compound,measurement,setting,value
"COc1ccc(-c2nc(N3CCOCC3)c3sc(CN(C)c4ncc(C(=O)NO)cn4)cc3n2)cn1 [fimepinostat, Fimepinostat]","TEAE Weight decreased, patients n (%)",[1]; Grade 4,0 (0)
same,"TEAE White blood cell count decreased, patients n (%)",[1]; Grade 4,1 (2)
same,"TEAE Abdominal pain, patients n (%)",[1]; Grades 1-2,6 (10)
same,"TEAE Anemia, patients n (%)",[1]; Grades 1-2,6 (10)
same,"TEAE Arthralgia, patients n (%)",[1]; Grades 1-2,7 (12)
same,"TEAE Back pain, patients n (%)",[1]; Grades 1-2,5 (9)
same,"TEAE Constipation, patients n (%)",[1]; Grades 1-2,14 (24)
same,"TEAE Cough, patients n (%)",[1]; Grades 1-2,9 (16)
same,"TEAE Decreased appetite, patients n (%)",[1]; Grades 1-2,18 (31)
same,"TEAE Diarrhea, patients n (%)",[1]; Grades 1-2,35 (60)
same,"TEAE Dizziness, patients n (%)",[1]; Grades 1-2,8 (14)
same,"TEAE Dyspnea, patients n (%)",[1]; Grades 1-2,6 (10)
same,"TEAE Edema peripheral, patients n (%)",[1]; Grades 1-2,6 (10)
same,"TEAE Fatigue, patients n (%)",[1]; Grades 1-2,18 (31)
same,"TEAE Hypokalemia, patients n (%)",[1]; Grades 1-2,7 (12)
same,"TEAE Hypomagnesaemia, patients n (%)",[1]; Grades 1-2,7 (12)
same,"TEAE Hypophosphatemia, patients n (%)",[1]; Grades 1-2,2 (3)
same,"TEAE Lymphocyte count decreased, patients n (%)",[1]; Grades 1-2,3 (5)
same,"TEAE Nausea, patients n (%)",[1]; Grades 1-2,30 (52)
same,"TEAE Neutropenia, patients n (%)",[1]; Grades 1-2,2 (3)
same,"TEAE Pain in extremity, patients n (%)",[1]; Grades 1-2,6 (10)
same,"TEAE Pyrexia, patients n (%)",[1]; Grades 1-2,9 (16)
same,"TEAE Thrombocytopenia, patients n (%)",[1]; Grades 1-2,8 (14)
same,"TEAE Upper respiratory tract infection, patients n (%)",[1]; Grades 1-2,6 (10)
same,"TEAE Vomiting, patients n (%)",[1]; Grades 1-2,15 (26)
same,"TEAE Weight decreased, patients n (%)",[1]; Grades 1-2,7 (12)
same,"TEAE White blood cell count decreased, patients n (%)",[1]; Grades 1-2,3 (5)
same,"Diarrhea, frequency",[1]; TEAE of any grade,72%
same,"Nausea, frequency",[1]; TEAE of any grade,52%
same,"Thrombocytopenia, frequency",[1]; TEAE of any grade,38%
same,"TEAE Abdominal pain, patients n (%)",[1]; Total,9 (16)
same,"TEAE Anemia, patients n (%)",[1]; Total,13 (22)
same,"TEAE Arthralgia, patients n (%)",[1]; Total,7 (12)
same,"TEAE Back pain, patients n (%)",[1]; Total,6 (10)
same,"TEAE Constipation, patients n (%)",[1]; Total,14 (24)
same,"TEAE Cough, patients n (%)",[1]; Total,9 (16)
same,"TEAE Decreased appetite, patients n (%)",[1]; Total,18 (31)
same,"TEAE Diarrhea, patients n (%)",[1]; Total,42 (72)
same,"TEAE Dizziness, patients n (%)",[1]; Total,8 (14)
same,"TEAE Dyspnea, patients n (%)",[1]; Total,9 (16)
same,"TEAE Edema peripheral, patients n (%)",[1]; Total,6 (10)
same,"TEAE Fatigue, patients n (%)",[1]; Total,19 (33)
same,"TEAE Hypokalemia, patients n (%)",[1]; Total,13 (22)
same,"TEAE Hypomagnesaemia, patients n (%)",[1]; Total,7 (12)
same,"TEAE Hypophosphatemia, patients n (%)",[1]; Total,6 (10)
same,"TEAE Lymphocyte count decreased, patients n (%)",[1]; Total,6 (10)
same,"TEAE Nausea, patients n (%)",[1]; Total,30 (52)
same,"TEAE Neutropenia, patients n (%)",[1]; Total,11 (19)
same,"TEAE Pain in extremity, patients n (%)",[1]; Total,7 (12)
same,"TEAE Pyrexia, patients n (%)",[1]; Total,10 (17)
same,"TEAE Thrombocytopenia, patients n (%)",[1]; Total,22 (38)
same,"TEAE Upper respiratory tract infection, patients n (%)",[1]; Total,6 (10)
same,"TEAE Vomiting, patients n (%)",[1]; Total,16 (28)
same,"TEAE Weight decreased, patients n (%)",[1]; Total,8 (14)
same,"TEAE White blood cell count decreased, patients n (%)",[1]; Total,7 (12)
same,"Non-evaluable patients who discontinued treatment due to TEAE, number","[1]; grade 2 vomiting (related), grade 4 hypercalcemia (unlikely related)",Two
same,"Anemia, frequency",[1]; grade 3 or 4,12%
same,"Diarrhea, frequency",[1]; grade 3 or 4,12%
same,"Most common grade 3 or 4 adverse event (event name not given), frequency",[1]; grade 3 or 4,24%
same,"Neutropenia, frequency",[1]; grade 3 or 4,15%
same,"Patients who experienced grade 5 TEAE, number","[1]; respiratory failure, sepsis, tracheal obstruction, unlikely or not related to treatment",Three
same,Overall response rate,[2]; central or local testing,64%
same,Estimated duration of response,[2],13.6 month
